Laboratory results from US20250134683A1, “MICRO-NANO MEDICAL STENT FOR DIRECTIONAL, QUANTITATIVE AND TIMED RELEASE OF DRUG AND PREPARATION METHOD THEREOF” (GUANGDONG UNIVERSITY OF TECHNOLOGY, priority 2023, published 2025).

Assay: sequential release of drugs from core-shell nano-disordered electrospun fiber structure
Format: physicochemical
Settings: composite electrospun layer of Example 1; roxithromycin in shell layer fiber, human epidermal growth factor in core layer fiber
Excerpt: Moreover, the transmission electron microscopic image of the core-shell nano-disordered electrospun fiber structure in the composite electrospun layer prepared in Example 1 is shown in FIG. 3. […] The coaxial electrospinning realizes the sequential and timed release of the two drugs in the same electrospun layer. Further, the electrospun layer can be prepared by triaxial electrospinning or multiaxial electrospinning process, which has a core-shell structure of three core layers or multi-core layers, thereby achieving the sequential and timed release of three or more drugs in the same electrospun layer.

With `CC[C@H]1OC(=O)[C@H](C)[C@@H](O[C@H]2C[C@@](C)(OC)[C@@H](O)[C@H](C)O2)[C@H](C)[C@@H](O[C@@H]2O[C@H](C)C[C@H](N(C)C)[C@H]2O)[C@](C)(O)C[C@@H](C)/C(=N\OCOCCOC)[C@H](C)[C@@H](O)[C@]1(C)O` [roxithromycin] the “order of drug release from core-shell fiber” value was “released in advance”.
